Measurements reported in US8440442B2, “Method of assaying 5-FU” (Myriad Genetics, Inc, priority 2009, dated 2013).

Assays:
[1] = molecular target: T1, dihydropyrimidine dehydrogenase (DPD) (Homo sapiens, UniProt Q12882); assay: 5-Vinyluracil, 5-iodouracil and gimeracil as stabilizer of 5-FU in spiked donor blood; assay type: biochemical; details: 500 ng/mL 5-FU; 5-iodouracil 10/40 μg/mL, 5-vinyluracil 5/20 μg/mL, gimeracil 300/1,200 ng/mL; 45 minutes room temperature (FIG. 3)
T1 construct: from tissue; host or cells: donor whole blood (K2EDTA), plasma separated from it, and WBC/buffy coat
T1 sequence (Q12882 4-1025): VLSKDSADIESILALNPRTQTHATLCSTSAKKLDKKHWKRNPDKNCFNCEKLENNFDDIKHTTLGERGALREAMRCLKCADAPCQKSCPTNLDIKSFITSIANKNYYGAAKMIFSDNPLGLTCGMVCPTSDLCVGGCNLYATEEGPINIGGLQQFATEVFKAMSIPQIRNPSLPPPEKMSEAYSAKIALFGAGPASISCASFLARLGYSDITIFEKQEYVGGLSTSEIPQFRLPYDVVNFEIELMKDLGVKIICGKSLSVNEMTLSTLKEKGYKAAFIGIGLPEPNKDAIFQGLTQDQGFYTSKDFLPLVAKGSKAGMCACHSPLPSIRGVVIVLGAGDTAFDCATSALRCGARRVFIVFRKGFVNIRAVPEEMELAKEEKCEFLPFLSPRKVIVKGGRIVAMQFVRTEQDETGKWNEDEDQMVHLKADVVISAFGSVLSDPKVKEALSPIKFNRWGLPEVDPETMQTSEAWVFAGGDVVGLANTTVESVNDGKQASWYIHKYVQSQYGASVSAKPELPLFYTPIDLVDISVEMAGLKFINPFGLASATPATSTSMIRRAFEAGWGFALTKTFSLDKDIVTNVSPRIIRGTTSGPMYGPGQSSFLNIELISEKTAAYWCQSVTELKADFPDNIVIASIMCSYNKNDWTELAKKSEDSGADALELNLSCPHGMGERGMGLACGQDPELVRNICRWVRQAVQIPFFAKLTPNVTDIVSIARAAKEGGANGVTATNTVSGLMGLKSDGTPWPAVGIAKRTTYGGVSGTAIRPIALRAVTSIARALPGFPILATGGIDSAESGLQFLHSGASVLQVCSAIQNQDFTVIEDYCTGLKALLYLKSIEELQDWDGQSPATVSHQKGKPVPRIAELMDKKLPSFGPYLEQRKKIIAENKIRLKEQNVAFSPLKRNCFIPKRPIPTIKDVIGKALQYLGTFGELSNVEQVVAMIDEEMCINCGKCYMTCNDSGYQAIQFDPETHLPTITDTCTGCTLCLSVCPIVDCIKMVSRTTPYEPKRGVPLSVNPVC
Method: (§1) In the following illustrative examples, 5-FU was measured using an antibody-based agglutination assay on the Olympus AU680 Analyzer using an antibody disclosed in U.S. Pat. No. 7,205,116. Specifically, the concentration of 5-FU in a sample is determined based on the absorbance of a sample, which is determined by the amount of aggregation by the nanoparticles. The system requires two reagents, which when mixed in the absence of free 5-FU will form large aggregates of nanoparticles and scatter light to result in a higher absorption value. In the presence of free 5-FU, the agglutination reaction becomes somewhat inhibited and scattering of light is less, causing a lower absorption value. The instrument is calibrated twice monthly, and a curve is generated (Absorbance vs. 5-FU concentration). Absorbance values from individual samples are compared against this curve to determine concentration.
(§2) Generally in the agglutination assay, 95 μl of a buffer containing 5-FU-labeled amino-dextran is pipetted to a cuvette, followed by 7 μL of a filtered plasma sample. The sample and reagent are mixed and then incubated for about 3.5 minutes. 95 μl of 5-FU antibody-conjugated nanoparticles is pipetted into the cuvette and mixed. The complete reaction incubates for about 6.2 minutes. A series of 27 measurements at 600 nm are taken at regular intervals by the AU680 analyzer throughout this process, and 5-FU concentration is calculated using the measurements from two specific time points.
Three tubes of blood (spray-on K2EDTA tubes, 10 mL) was drawn from each of six donors, and blood tubes were gently inverted several times to mix anti-coagulant. Blood was pooled and kept separate by donor. An aliquot of each blood sample was transferred to a new conical tube, and a calculated volume of stock 5-FU (at 200 ng/μL) was spiked into each blood sample for a final concentration of 500 ng/mL 5-FU. Each blood sample was aliquotted to a set of four tubes (5 mL blood per tube). Each set of tubes was different, but included a combination of the conditions below: […]

[2] = molecular target: T1, dihydropyrimidine dehydrogenase (DPD); assay: Low concentrations of gimeracil in 5-FU spiked blood, plasma 5-FU initial and after 24 hr; assay type: biochemical; details: for 5-FU concentration, Initial / 5-FU concentration, 24 hr: blood spiked 500 ng/mL 5-FU; for 5-FU concentration, Initial: after plasma collection; for 5-FU concentration, 24 hr: plasma 24 hours at room temperature
Method: as §1, §2
Four tubes of blood (spray-on K2EDTA tubes, 10 mL) was drawn from each of five donors, and gently inverted several times to mix anti-coagulant. Blood was pooled by donor into conical tubes. An aliquot of each donor's blood was transferred to a clean tube. A calculated volume of 5-FU stock (at 200 ng/μL) was added to each blood sample to achieve a final concentration of 500 ng/mL 5-FU, and tubes were inverted to mix. Spiked blood was aliquotted into clean tubes, nine tubes per donor and 3.5 mL of blood per tube. Gimeracil was added to the tubes at a final concentration of 200, 400, or 600 ng/mL for each tube. In addition, in control samples, methanol was added to the blood instead of gimeracil, in order to serve as a negative control. The blood tubes sat at room temperature for 45 minutes after the addition of the gimeracil or methanol. At the appropriate times, the blood tubes were centrifuged at 2000×g for 10 minutes at room temperature to separate plasma. Plasma was aspirated immediately after centrifugation, and the plasma was dispensed into clean tubes. Plasma samples were run using standard conditions for Olympus AU680 analyzer (200 μL, spin for 15 minutes at 12,500 rpm). Measurements of 5-FU concentration were taken after plasma collection (“initial”) and 24 hours (“24 hr”) thereafter. For the 24 hr measurement, plasma was stored at room temperature during the 24 hours. As shown in Table 2 and FIG. 4, low concentrations of gimeracil in blood is also effective at inhibiting DPD-mediated degradation of 5-FU. The overall percent difference in 5-FU concentration between the samples containing 200 ng/mL and 600 ng/mL gimeracil is less than 1%.

Oc1cc(O)c(Cl)cn1 [Gimeracil, 5-chloro-2,4-dihydroxypyridine]
stabilizing 5-FU in blood samples [1]: effective
overall percent difference in 5-FU concentration between samples containing 200 ng/mL and 600 ng/mL gimeracil ([2]; 500 ng/mL 5-FU spiked blood): less than 1%
5-FU concentration, Initial ([2]; gimeracil 200 ng/mL): 518.7
5-FU concentration, 24 hr ([2]; gimeracil 200 ng/mL): 523.4
5-FU concentration, Initial ([2]; gimeracil 400 ng/mL): 523.0
5-FU concentration, 24 hr ([2]; gimeracil 400 ng/mL): 521.6
5-FU concentration, Initial ([2]; gimeracil 600 ng/mL): 519.5
5-FU concentration, 24 hr ([2]; gimeracil 600 ng/mL): 523.3
inhibiting DPD-mediated degradation of 5-FU ([2]; low concentrations of gimeracil in blood (200, 400, 600 ng/mL), Table 2 and FIG. 4): effective
